We go through 13 compounds from patent USRE47607E1, “Luciferase signal enhancing compositions” (GENE STREAM PTY LTD, priority 2006, dated 2019).

Assay [1] deals with non-secreted Metridia luciferase. Nature of the assay: non-secreted Metridia luciferase activity in HeLa cell lysates. Format: biochemical. To be noted: for signal intensity: chelator in lysis buffer without salt, 30 or 120 min lysis, FIGS. 10A, 10B; for light units (% of those obtained using 0.1% NP40): detergent type and concentration varied, 40 or 120 min, FIGS. 14A, 14B; for increase in activity between 30 and 120 min lysis: salt 150 mM in lysis buffer, % of light units at 30 min lysis, FIG. 26. The protocol: HeLa cells stably expressing either non-secreted and destabilized Gaussia or non-secreted and destabilized Metridia luciferase were plated onto 96-well plates and incubated overnight. Medium was removed and the cells lysed in 20 ul of lysis buffer per well. The lysis buffer comprised; 25 mM Tris pH 8.1; 0.1% NP40; 63.4 uM Na-Oxalate; 5% Glycerol plus the concentration and type of salt indicated in FIG. 4. Replicate samples were assayed for luciferase activity after 30 minutes following addition of the lysis buffer by injecting 60 ul of assay buffer. The assay buffer comprised 25 mM Tris pH 7.75; 2 mM Ascorbate; 24 uM Cz. Results were expressed as a % of the light units obtained in the absence of salt (see FIG. 4).
Luciferase assays were performed as described in Example 5 with either non-secreted and destabilized Gaussia luciferase or non-secreted and destabilized Metridia luciferase. Two experiments are shown as separate graphs, with results shown as relative luminescence in counts per second (CPS) (see FIGS. 5A and 5B). Within each experiment, the lysis buffer and assay buffer differed only in the amount and type of salt added as indicated. Replicate samples were analysed at 120 min after addition of the lysis buffer (LB) by injecting 60 ul of assay buffer (AB).
Luciferase assays were performed with non-secreted and destabilized Metridia luciferase as described in Example 5, except the lysis buffer contained no salt and but contained the indicated type and concentration of chelators. Replicate luciferase assay were carried out after a 30 or 120 min lysis period. Results from the 30 min time point were expressed as a % of the light units obtained in the absence of chelator (see FIG. 10A) and results from the 120 min time point were expressed as % of the light units obtained with the same lysis buffer at 30 min (see FIG. 10B).
HeLa cells expressing destabilised, non-secreted Gaussia or non-secreted Metridia luciferases were plated in equal aliquots onto 96-well plates and incubated overnight. Medium was removed and the cells lysed in 20 ul of lysis buffer. The detergent type and concentration was varied as indicated. Luciferase assays were carried out by injecting 60 ul of assay buffer comprising 25 mM Tris pH 8.1; 1 mM EDTA, 2 mM Ascorbate; 24 uM Cz Two experiments are shown, in the first the lysis buffer also contained 5% glycerol, 64 uM sodium oxalate, 150 mM NaBr, 25 mM Tris pH 8.5, 5 mM EDTA, 0.6 mM reduced glutathione, 0.4 mM oxidised glutathione, 75 mM urea (v6) and luciferase activity was assayed at 40 min. In the second experiment, the lysis buffer also contained 2 5 mM Tris pH 8.1, 63.4 uM Na-oxalate, 150 mM NaBr, 5% Glycerol and the luciferase activity was assayed at 120 min. Results were expressed as the % of the light units obtained using 0.1% NP40 (see FIGS. 14A and 14B). […]
HeLa cells expressing destabilised, non-secreted Metridia luciferase were plated in equal aliquots onto 96-well plates and incubated overnight.

Assay [2] concerns non-secreted Gaussia luciferase. Nature of the assay: non-secreted Gaussia luciferase activity in HeLa cell lysates. Type of assay: biochemical. To be noted: for signal intensity with detergent in lysis buffer: detergent 0.1% in lysis buffer unless otherwise indicated, FIGS. 13A-C; for light units (% of those obtained using 0.1% NP40): detergent type and concentration varied, 40 or 120 min, FIGS. 14A, 14B; for signal intensity: chelator type and concentration varied, 30 min lysis, FIG. 9; for stability of luciferase activity between 20 and 90 min after onset of cell lysis: salt and EDTA in lysis buffer, % of light units at 20 min lysis, FIG. 7; for light output (% of light units obtained in the absence of salt): salt in lysis buffer, assayed 40 min after lysis buffer, FIG. 3. The protocol: HeLa cells stably expressing non-secreted and destabilized Gaussia luciferase were plated onto 96-well plates and incubated overnight. Medium was removed and the cells lysed in 30 ul of lysis buffer per well. The lysis buffer (LB) comprised; 25 mM Tris pH 7.8; 0.1% NP40; 1 mM EDTA plus NaBr at concentrations of (from left to right) 0 mM, 150 mM, 0 mM and 75 mM. Luciferase activity was assayed by injecting 30 ul of an assay buffer (AB) comprising 25 mM Tris pH 7.8; 40 uM Cz plus NaBr at concentrations of (from left to right) 0 mM, 0 mM, 150 mM and 75 mM. Thus, the final concentration of NaBr was 75 mM in all samples, except the no salt controls. Results were expressed as relative light units (RLU) (See FIG. 2).
HeLa cells stably expressing non-secreted and destabilized Gaussia luciferase were plated onto 96-well plates and incubated overnight. Medium was removed and the cells lysed in 20 ul of lysis buffer per well. The lysis buffer comprised; 25 mM Tris pH 8.1, 1 mM EDTA; 0.1% NP40; 63.4 uM Na-Oxalate; 5% Glycerol plus the concentration and type of salt indicated in FIG. 3. Luciferase activity was assayed at 40 min after addition of the lysis buffer (by injecting 60 ul of an assay buffer comprising 25 mM Tris pH 8.1; 1 mM EDTA, 2 mM Ascorbate; 26 uM Cz. Results were expressed as a % of the light units obtained in the absence of salt (see FIG. 3). […]
Luciferase assays were performed as described in Example 4. All salts were present at 150 mM in lysis buffer.
Luciferase assays were performed as described in Example 7, except using the indicated concentrations of salt and EDTA in the lysis buffer. Replicate samples were assayed for luciferase activity at 20, 30, 40 and 90 min after addition of lysis buffer. Results were expressed as a % of the light units obtained after 20 min lysis in the same lysis buffer (see FIG. 7).
Luciferase assays were performed as described in Example 8, except using lysis buffer containing 150 mM NaBr and the indicated concentration of EDTA. Two experiments are shown as separate graphs, with results shown as relative light units (RLU) (see FIGS. 8A and 8B). Within each experiment, the same assay buffer was used for all samples and the lysis buffer differed only in the amount of EDTA as indicated. Replicate samples were assayed for activity of non-secreted Gaussia luciferase at 30 or 120 min after addition of lysis buffer.
Luciferase assays were performed as described in Example 9, except using the indicated type and concentration of chelator and a 30 min lysis period.
HeLa cells expressing destabilised, non-secreted Gaussia luciferase were plated in equal aliquots onto 96-well plates and incubated overnight. Three experiments are shown as separate graphs (FIGS. 13A, 13B and 13C). Within each experiment, the same assay buffer was used for all samples and the lysis buffer differed only in the type of detergent used (0.1% in lysis buffer unless otherwise indicated).
HeLa cells expressing destabilised, non-secreted Gaussia or non-secreted Metridia luciferases were plated in equal aliquots onto 96-well plates and incubated overnight. Medium was removed and the cells lysed in 20 ul of lysis buffer. The detergent type and concentration was varied as indicated.

The next assay addresses Firefly luciferase (Photinus pyralis, UniProt P08659). To be noted: EDTA in lysis buffer, 30 min; FIG. 12. The protocol: (§1) HeLa cells expressing Firefly or Renilla luciferases were plated into 96-well plates and incubated overnight. Medium was removed and the cells lysed in 20 ul of lysis buffer containing 25 mM Tris pH 8.1; 0.1% NP40; 63.4 uM Na-Oxalate; 5% Glycerol, 150 mM NaCl plus the concentration of EDTA in FIG. 12. Replicate samples were assayed for luciferase activity at 30 min by injecting 30 ul of Firefly assay buffer II containing Firefly substrate followed by 30 ul of Promega's “Stop and Glo” buffer containing Renilla substrate. Results are expressed as a % of the light units obtained in the absence of EDTA (see FIG. 12).

A further assay has as its target Renilla luciferase (Renilla reniformis, UniProt P27652). Particulars: EDTA in lysis buffer, 30 min; FIG. 12. The protocol:
as §1

Assay [3] concerns secreted Gaussia luciferase. Nature of the assay: secreted Gaussia luciferase activity in conditioned medium of transfected HeLa cells. Type of assay: biochemical. To be noted: salt in assay buffer, 26 uM Cz, pH 8.1; FIG. 1.
Description: HeLa cells were transiently transfected with a plasmid expressing native, secreted Gaussia luciferase and 24 hrs later the conditioned medium was collected. Wells of a 96-well plate were loaded with 20 ul of conditioned medium and assayed for luciferase activity by injecting 60 ul of an assay buffer comprising 26 uM Cz; pH 8.1 plus the salt as indicated in FIG. 1. Results were expressed as a % of the light units obtained in the absence of salt (FIG. 1).
Assay [4] concerns non-secreted Gaussia luciferase. Nature of the assay: non-secreted Gaussia luciferase activity in HeLa cell lysates. Format: biochemical. To be noted: 50-100 mM urea in lysis buffer, glutathione in both buffers; FIG. 24.

Entries after “also recorded” stand apart in the source; their conditions may differ.

Renilla luciferase, sequence (P27652 whole entry): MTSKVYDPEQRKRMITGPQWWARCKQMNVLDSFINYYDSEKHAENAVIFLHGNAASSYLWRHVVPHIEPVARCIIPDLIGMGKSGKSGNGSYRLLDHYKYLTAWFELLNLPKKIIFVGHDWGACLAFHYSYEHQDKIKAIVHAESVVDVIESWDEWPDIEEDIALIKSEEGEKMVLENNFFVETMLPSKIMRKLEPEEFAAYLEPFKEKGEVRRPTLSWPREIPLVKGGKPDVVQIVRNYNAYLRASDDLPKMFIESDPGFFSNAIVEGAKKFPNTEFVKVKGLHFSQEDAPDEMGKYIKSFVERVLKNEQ
Firefly luciferase, sequence (P08659 whole entry): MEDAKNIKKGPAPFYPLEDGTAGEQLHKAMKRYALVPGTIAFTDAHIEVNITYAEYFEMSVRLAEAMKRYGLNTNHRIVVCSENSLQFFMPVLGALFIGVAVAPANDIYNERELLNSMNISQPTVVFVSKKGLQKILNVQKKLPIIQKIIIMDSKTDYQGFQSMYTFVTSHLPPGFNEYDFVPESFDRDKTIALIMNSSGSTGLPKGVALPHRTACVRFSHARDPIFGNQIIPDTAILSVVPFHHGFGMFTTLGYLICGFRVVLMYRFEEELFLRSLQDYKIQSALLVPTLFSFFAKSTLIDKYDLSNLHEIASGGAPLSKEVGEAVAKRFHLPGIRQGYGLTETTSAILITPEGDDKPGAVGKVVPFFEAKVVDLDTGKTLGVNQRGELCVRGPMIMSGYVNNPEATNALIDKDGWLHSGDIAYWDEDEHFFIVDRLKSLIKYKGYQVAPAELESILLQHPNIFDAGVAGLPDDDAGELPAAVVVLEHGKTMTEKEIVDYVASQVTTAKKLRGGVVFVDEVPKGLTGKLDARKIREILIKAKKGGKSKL

As to `O=C(O)CN(CC(=O)O)C1CCCCC1N(CC(=O)O)CC(=O)O` (stereo not drawn) [CDTA], in assay [1], the signal intensity result is “concentration-dependent beneficial effect on signal intensity”.

As to `C[C@H](CCC(=O)NCCC[N+](C)(C)CCCS(=O)(=O)[O-])[C@H]1CC[C@H]2[C@@H]3[C@H](O)C[C@@H]4C[C@H](O)CC[C@]4(C)[C@H]3C[C@H](O)[C@]12C` [CHAPS], the “signal intensity with detergent in lysis buffer” value (from here on “signal intensity with detergent”) in assay [2] was “appeared not to lyse the cells at 0.1%”. For the same compound, the “light units (% of those obtained using 0.1% NP40)” value in assay [2] is recorded as “insufficient to lyse the cells”; in assay [1], “insufficient to lyse the cells; also recorded: highest activity for non-secreted Metridia luciferase”.

In the case of `CCCCCCCCCCCCCCCC[N+](C)(C)C.[Br-]` [CTAB], in assay [2] (data not shown, luciferase not specified, stated under Example 15), the “effect of cationic detergent on signal intensity” value is reported as “strong inhibitory effect on signal intensity”.

As to `C[C@H](CCC(=O)[O-])[C@H]1CC[C@H]2[C@@H]3CC[C@@H]4C[C@H](O)CC[C@]4(C)[C@H]3C[C@H](O)[C@]12C.[Na+]` [DOC], the “signal intensity with detergent” value in assay [2] is reported as “do not perform well”. Moreover, the “light units (% of those obtained using 0.1% NP40)” value in assay [2] and in assay [1] was “concentration-dependent inhibition on signal intensity. This effect was most evident” throughout.

Take `O=C(O)CN(CCN(CC(=O)O)CC(=O)O)CC(=O)O` [EDTA]: in assay [2], the signal intensity entry is “concentration-dependent beneficial effect on signal intensity”; the “stability of luciferase activity between 20 and 90 min after onset of cell lysis” value is listed as “far more stable (and therefore more desirable) level of luciferase activity”. In assay [2] (lysis buffer with 150 mM NaBr and varied EDTA, 30 or 120 min, FIGS. 8A, 8B), the “signal intensity and stability of signal over time in lysis buffer” value is “benefit of higher amounts of EDTA in terms of both signal intensity and the stability of the luciferase signal over time in lysis buffer”. For the same compound, in assay [1], the signal intensity entry is reported as “concentration-dependent beneficial effect on signal intensity”; the “increase in activity between 30 and 120 min lysis” value is reported as “performed considerably better”. Further, the “light units (% of those obtained in the absence of EDTA)” value at Firefly luciferase was “clearly decreases the activity of Firefly luciferase”. The “light units (% of those obtained in the absence of EDTA)” value on Renilla luciferase is listed as “does not provide the same beneficial effect on signal intensity”.

Turning to `O=C(O)CN(CCOCCOCCN(CC(=O)O)CC(=O)O)CC(=O)O` [EGTA], the signal intensity result in assay [2] and in assay [1] was “concentration-dependent beneficial effect on signal intensity” each time.

As for `[Br-].[Na+]` [NaBr, sodium bromide], the “luciferase activity (RLU)” value in assay [2] (NaBr in lysis buffer or assay buffer, final 75 mM, FIG. 2) was “enhances activity of non-secreted Gaussia luciferase, especially when included in lysis buffer”. Also, the “stability of luciferase activity between 20 and 90 min after onset of cell lysis” value in assay [2] was “far more stable (and therefore more desirable) level of luciferase activity”. Further, the “light output (% of light units obtained in the absence of salt)” value in assay [2] is “superior enhancement to NaCl”; in assay [1] (salt in lysis buffer, assayed 30 min after lysis buffer, FIG. 4), “superior enhancement to NaCl”; in assay [3], “higher than with either NaCl or no salt”. Besides, in assay [1], the “increase in activity between 30 and 120 min lysis” value was “performed better than NaCl”.

In the case of `[Cl-].[Na+]` [NaCl], in assay [2], the “light output (% of light units obtained in the absence of salt)” value is listed as “increased light output compared to no salt”. For the same compound, the “increase in activity between 30 and 120 min lysis” value in assay [1] is listed as “more than 1200%”.

Consider `CCCCCCCCCCCCOS(=O)(=O)[O-].[Na+]` [SDS], for which, in assay [2], the “signal intensity with detergent” value is recorded as “do not perform well” and the “light units (% of those obtained using 0.1% NP40)” value was “blocks enzymatic activity; also recorded: concentration-dependent inhibition on signal intensity. This effect was most evident”. Also, the “light units (% of those obtained using 0.1% NP40)” value in assay [1] is listed as “blocks enzymatic activity; also recorded: concentration-dependent inhibition on signal intensity. This effect was most evident”.

Regarding `N[C@@H](CCC(=O)N[C@@H](CS)C(=O)NCC(=O)O)C(=O)O` [reduced glutathione], the “rate at which luciferase acquires maximum activity during cell lysis; signal” value in assay [2] (total glutathione and reduced:oxidized ratio varied, 20 or 60 min, FIG. 21) was “somewhat reduced signal was seen at 60 minutes”.

Take `NC(N)=O` [urea]: the “increase in signal between 15 and 60 min lysis” value in assay [4] is given as “increase was less pronounced”.

NP40: the “effect of % NP40 in lysis buffer on signal strength” value in assay [2] (FIGS. 16A, 16B) is “signal strength declined with increasing amounts of detergent”. Besides, in assay [2], the “signal intensity with detergent” value is reported as “highest signal intensity” and the “light units (% of those obtained using 0.1% NP40)” value is recorded as “highest signal intensity”. Also, in assay [1], the “light units (% of those obtained using 0.1% NP40)” value is on record as “highest signal intensity”.

In the case of Triton X100, the “light units (% of those obtained using 0.1% NP40)” value in assay [2] and in assay [1] was “highest signal intensity” throughout.
